Source: ChEMBL document CHEMBL1158005, “New 12a-hydroxyrotenoids from gliricidia sepium bark” (J Nat Prod, 1999)
Converted amounts (≈) assume the structure as drawn.

experiment: Toxicity in Artemia salina larvae after 24 hrs; format: organism-based; conditions: in vivo

Row | Structure (SMILES) | LC50 at 24 h
1 | COc1ccc2c(c1)OC[C@H]1Oc3cc(O)ccc3C(=O)[C@@]21O [GLIRICIDOL] | 50.7 µg/mL (≈ 161 µM)
2 | COc1cc2c(cc1OC)[C@]1(O)C(=O)c3ccc(O)cc3O[C@@H]1CO2 | 284 µg/mL (≈ 826 µM)
3 | COc1ccc2c(c1)OC[C@H]1Oc3cc(O)ccc3C(c3cc([C@@H]4COc5cc(O)ccc5C4)ccc3OC)[C@@]21O (stereo partly drawn) [GLIRICIDIN] | 244 µg/mL (≈ 439 µM)
